Measurements as given in patent US10030006B2, “Coumarin based Hsp90 inhibitors with urea and ether substituents” (University of Kansas, priority 2013, dated 2018).
Read-outs that look alike come from different tables or passages of the source.

Experiments:
Assay type in all cases: cell-based
[1] = tested on: SKBr3 and MCF-7 cell lines; test: Anti-proliferative activity against both breast cancer cell lines (results in words); conditions: SKBr3 and MCF-7, Tables 1-5
Protocol: (§1) Cells were maintained in a 1:1 mixture of Advanced DMEM/F12 (Gibco) supplemented with non-essential amino acids, L-glutamine (2 mM), streptomycin (500 μg/mL), penicillin (100 units/mL), and 10% FBS. Cells were grown to confluence in a humidified atmosphere (37° C., 5% CO2), seeded (2000/well, 100 μL) in 96-well plates, and allowed to attach overnight. Compound at varying concentrations in DMSO (1% DMSO final concentration) was added, and cells were returned to the incubator for 72 h. At 72 h, the number of viable cells was determined using an MTS/PMS cell proliferation kit (Promega) per the manufacturer's instructions. Cells incubated in 1% DMSO were used at 100% proliferation, and values were adjusted accordingly. IC50 values were calculated from separate experiments performed in triplicate using GraphPad Prism.
The anti-proliferative activity of these compounds is evaluated against two breast cancer cell lines, SKBr3 (estrogen receptor negative, Her2 over-expressing breast cancer cells) and MCF-7 (estrogen receptor positive breast cancer cells).

HMLE = test: Anti-proliferation assay, HMLE (normal); conditions: Table 6, substituted phenyl ureas
Protocol: as §1

[2] = tested on: SKBr3 (estrogen receptor negative, Her2 over-expressing breast cancer cells); test: Anti-proliferation assay (MTS/PMS, 72 h), SKBr3; conditions: Table 6, substituted phenyl ureas, Breast Cancer, read-out: IC50 SKBr3
DRO81-1 = test: Anti-proliferation assay, DRO81-1; conditions: Table 6, substituted phenyl ureas; Thyroid
Protocol: as §1

HCT-116 = test: Anti-proliferation assay, HCT-116; conditions: Table 6, substituted phenyl ureas
Protocol: as §1

MDA1986 = test: Anti-proliferation assay, MDA1986; conditions: Table 6, substituted phenyl ureas, HSNCC
Protocol: as §1

PC-3 = test: Anti-proliferation assay, PC-3; conditions: Table 6, substituted phenyl ureas, Prostate Cancer
Protocol: as §1

[3] = tested on: MCF-7 (estrogen receptor positive breast cancer cells); test: Anti-proliferation assay (MTS/PMS, 72 h), MCF-7; conditions: Table 6, substituted phenyl ureas, Breast Cancer, read-out: IC50 MCF-3
A-549 = test: Anti-proliferation assay, A-549; conditions: Table 6, substituted phenyl ureas
Protocol: as §1

JMAR = test: Anti-proliferation assay, JMAR; conditions: Table 6, substituted phenyl ureas, HSNCC
Protocol: as §1

MRC5 = test: Anti-proliferation assay, MRC5 (normal)
Protocol: as §1

MDAMB231 = test: Anti-proliferation assay, MDAMB231; conditions: Table 6, substituted phenyl ureas, Tri-Neg
Protocol: as §1

[4] = Homo sapiens, MRC5, Table 6, substituted phenyl ureas

IC50 ([2]; Homo sapiens, SK-BR-3) [nM] | IC50 (HCT-116; Homo sapiens, HCT-116) [nM] | IC50 (PC-3; Homo sapiens, PC-3) [nM] | IC50 ([3]; Homo sapiens, MCF7) [nM] | IC50 (A-549; Homo sapiens, A549) [nM] | IC50 (MDAMB231; Homo sapiens, MDA-MB-231) [nM] | SMILES | IC50 (HMLE; HMLE) [nM] | IC50 (DRO81-1) [nM] | IC50 (MDA1986; MDA1986) [nM] | IC50 (JMAR; JMAR) [nM] | IC50 (MRC5; [4]) [nM] | other results
– | – | – | – | – | – | CC(C)=CCc1cc(C(=O)Nc2cc3ccc(OCCCN4CCN(C)CC4)c(C)c3oc2=O)ccc1O [Compound 62, 4-hydroxy-N-(8-methyl-7-(3-(4-methylpiperazin-1-yl)propoxy)-2-oxo-2H-chromen-3-yl)-3-(3-methylbut-2-en-1-yl)benzamide] | – | – | – | – | – | anti-proliferative activity (in words) [1]: maintain activity comparable to the N-methylpiperidine derivative
– | – | – | – | – | – | CC(C)=CCc1cc(C(=O)Nc2cc3ccc(OCCCN4CCOCC4)c(C)c3oc2=O)ccc1O [Compound 64, 4-hydroxy-N-(8-methyl-7-(3-morpholinopropoxy)-2-oxo-2H-chromen-3-yl)-3-(3-methylbut-2-en-1-yl)benzamide] | – | – | – | – | – | anti-proliferative activity (in words) [1]: inactive at the highest concentrations tested
– | – | – | – | – | – | CC(C)=CCc1cc(C(=O)Nc2cc3ccc(OCCCN4CCCCC4)c(C)c3oc2=O)ccc1O [Compound 65, 4-hydroxy-N-(8-methyl-2-oxo-7-(3-(piperidin-1-yl)propoxy)-2H-chromen-3-yl)-3-(3-methylbut-2-en-1-yl)benzamide] | – | – | – | – | – | anti-proliferative activity (in words) [1]: inactive at the highest concentrations tested
– | – | – | – | – | – | CC(C)=CCc1cc(C(=O)Nc2cc3ccc(OCCCN4CCCC4)c(C)c3oc2=O)ccc1O [Compound 66, 4-hydroxy-N-(8-methyl-2-oxo-7-(3-(pyrrolidin-1-yl)propoxy)-2H-chromen-3-yl)-3-(3-methylbut-2-en-1-yl)benzamide] | – | – | – | – | – | anti-proliferative activity (in words) [1]: restores activity
650 | 240 | 180 | 1040 | 110 | 2600 | Cc1c(OC2CCN(C)CC2)ccc2cc(NC(=O)Nc3ccc(Br)cc3)c(=O)oc12 [p-Br, 1-(4-bromophenyl)-3-(8-methyl-7-((1-methylpiperidin-4-yl)oxy)-2-oxo-2H-chromen-3-yl)urea] | 6000 | 3500 | 3500 | 3600 | 5500 | –
930 | 210 | 140 | 960 | 92 | 500 | Cc1c(OC2CCN(C)CC2)ccc2cc(NC(=O)Nc3ccc(C(C)(C)C)cc3)c(=O)oc12 [p-C(CH3)3, 1-(4-(tert-butyl)phenyl)-3-(8-methyl-7-((1-methylpiperidin-4-yl)oxy)-2-oxo-2H-chromen-3-yl)urea] | 14500 | 710 | 570 | 490 | 1800 | –
350 | 800 | 60 | 470 | 130 | 430 | Cc1c(OC2CCN(C)CC2)ccc2cc(NC(=O)Nc3ccc(C(F)(F)F)cc3)c(=O)oc12 [p-CF3, 1-(8-methyl-7-((1-methylpiperidin-4-yl)oxy)-2-oxo-2H-chromen-3-yl)-3-(4-(trifluoromethyl)phenyl)urea] | 15500 | 640 | 900 | 3600 | 3100 | –
270 | 59 | 810 | 290 | 17 | 910 | Cc1ccc(NC(=O)Nc2cc3ccc(OC4CCN(C)CC4)c(C)c3oc2=O)cc1 [p-CH3, 1-(8-methyl-7-((1-methylpiperidin-4-yl)oxy)-2-oxo-2H-chromen-3-yl)-3-(p-tolyl)urea] | 3300 | 16300 | 3200 | 3500 | 6600 | –
670 | 1060 | 130 | 820 | 160 | 610 | Cc1c(OC2CCN(C)CC2)ccc2cc(NC(=O)Nc3ccc(C(C)C)cc3)c(=O)oc12 [p-CH(CH3)2, 1-(4-isopropylphenyl)-3-(8-methyl-7-((1-methylpiperidin-4-yl)oxy)-2-oxo-2H-chromen-3-yl)urea] | 6400 | 300 | 1110 | 880 | 1900 | –
370 | 570 | 48 | 430 | 43 | 440 | Cc1c(OC2CCN(C)CC2)ccc2cc(NC(=O)Nc3ccc(C#N)cc3)c(=O)oc12 [p-CN, 1-(4-cyanophenyl)-3-(8-methyl-7-((1-methylpiperidin-4-yl)oxy)-2-oxo-2H-chromen-3-yl)urea] | 4000 | 280 | 1620 | 3700 | 5700 | –
– | – | – | – | – | – | CC(=O)c1ccc(NC(=O)Nc2cc3ccc(OC4CCN(C)CC4)c(C)c3oc2=O)cc1 [p-COCH3] | – | 13300 | – | – | – | IC50 (HMLE): 8000 nM; IC50 [2]: 1520 nM; IC50 (HCT-116): 250 nM; IC50 (MDA1986): 3400 nM; IC50 (PC-3): 2750 nM; IC50 [3]: 1720 nM; IC50 (A-549): 240 nM; IC50 (JMAR): 11900 nM; IC50 (MRC5; Table 6, substituted phenyl ureas): 7700 nM; IC50 (MDAMB231): 750 nM
170 | 420 | 2300 | 360 | 160 | > 25000 | Cc1c(OC2CCN(C)CC2)ccc2cc(NC(=O)Nc3ccc(Cl)cc3)c(=O)oc12 [p-Cl, 1-(4-chlorophenyl)-3-(8-methyl-7-((1-methylpiperidin-4-yl)oxy)-2-oxo-2H-chromen-3-yl)urea] | > 25000 | 15800 | > 25000 | 6100 | > 25000 | –
480 | 61 | 3320 | 960 | 1060 | 50 | Cc1c(OC2CCN(C)CC2)ccc2cc(NC(=O)Nc3ccc(F)cc3)c(=O)oc12 [p-F, 1-(4-fluorophenyl)-3-(8-methyl-7-((1-methylpiperidin-4-yl)oxy)-2-oxo-2H-chromen-3-yl)urea] | > 25000 | 19900 | 10 | 8600 | > 25000 | –
580 | 2830 | 1060 | 4240 | 950 | 2100 | Cc1c(OC2CCN(C)CC2)ccc2cc(NC(=O)Nc3ccc([N+](=O)[O-])cc3)c(=O)oc12 [p-NO2, 1-(8-methyl-7-((1-methylpiperidin-4-yl)oxy)-2-oxo-2H-chromen-3-yl)-3-(4-nitrophenyl)urea] | > 25000 | 11500 | 6600 | 7300 | > 25000 | –
860 | 250 | 520 | 960 | 1090 | 2400 | COc1ccc(NC(=O)Nc2cc3ccc(OC4CCN(C)CC4)c(C)c3oc2=O)cc1 [p-OCH3, 1-(4-methoxyphenyl)-3-(8-methyl-7-((1-methylpiperidin-4-yl)oxy)-2-oxo-2H-chromen-3-yl)urea] | 740 | 29000 | 2600 | 8400 | 2700 | –
400 | 240 | 150 | 700 | 180 | 2200 | Cc1c(OC2CCN(C)CC2)ccc2cc(NC(=O)Nc3ccc(Oc4ccccc4)cc3)c(=O)oc12 [p-phenoxyl, 1-(8-methyl-7-((1-methylpiperidin-4-yl)oxy)-2-oxo-2H-chromen-3-yl)-3-(4-phenoxyphenyl)urea] | > 25000 | 1800 | 6000 | 5300 | 11300 | –
360 | 150 | 52 | 700 | 66 | 370 | Cc1c(OC2CCN(C)CC2)ccc2cc(NC(=O)Nc3ccc(-c4ccccc4)cc3)c(=O)oc12 [p-phenyl, 1-([1,1′-biphenyl]-4-yl)-3-(8-methyl-7-((1-methylpiperidin-4-yl)oxy)-2-oxo-2H-chromen-3-yl)urea] | 3600 | 270 | 850 | 930 | 2000 | –
